SMILES strings stand for the structures.

The target of the first test is T1, androgen receptor (Homo sapiens, UniProt P10275, T878A).
T1 construct: 2*10^6 LNCaP cells in 6 ml of RPMI 1640 without phenol red are grown; endogenous in cells; host or cells: LNCaP (human prostate cell line)
T1 sequence (P10275 1-920 T878A): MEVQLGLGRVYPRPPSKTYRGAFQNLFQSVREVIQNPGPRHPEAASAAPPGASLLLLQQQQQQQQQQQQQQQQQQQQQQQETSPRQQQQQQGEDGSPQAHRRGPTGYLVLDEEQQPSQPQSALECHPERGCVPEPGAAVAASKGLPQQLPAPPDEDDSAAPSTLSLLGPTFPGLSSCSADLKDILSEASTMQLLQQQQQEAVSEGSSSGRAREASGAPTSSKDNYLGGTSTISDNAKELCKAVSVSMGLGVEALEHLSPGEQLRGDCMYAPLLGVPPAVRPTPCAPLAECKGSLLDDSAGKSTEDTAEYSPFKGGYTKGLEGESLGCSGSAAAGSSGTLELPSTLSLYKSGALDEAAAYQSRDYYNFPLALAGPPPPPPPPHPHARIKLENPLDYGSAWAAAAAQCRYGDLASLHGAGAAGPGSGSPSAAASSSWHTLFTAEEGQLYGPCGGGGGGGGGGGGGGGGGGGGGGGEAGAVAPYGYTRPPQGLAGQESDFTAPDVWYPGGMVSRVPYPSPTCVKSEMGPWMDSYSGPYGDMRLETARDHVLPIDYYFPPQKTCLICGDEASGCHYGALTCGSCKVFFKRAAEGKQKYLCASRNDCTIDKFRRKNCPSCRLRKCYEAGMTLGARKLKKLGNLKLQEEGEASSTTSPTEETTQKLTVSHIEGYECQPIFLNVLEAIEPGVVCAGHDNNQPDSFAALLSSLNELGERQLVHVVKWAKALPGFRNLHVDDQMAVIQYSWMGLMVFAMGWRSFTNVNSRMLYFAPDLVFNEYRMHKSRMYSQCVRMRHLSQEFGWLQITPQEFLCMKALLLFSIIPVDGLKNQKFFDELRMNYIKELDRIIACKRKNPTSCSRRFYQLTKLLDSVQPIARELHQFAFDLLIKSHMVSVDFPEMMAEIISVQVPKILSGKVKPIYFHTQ
Kind of test: cell-based. To be noted: LNCaP cells, 10 μM test substance, 48 h; AR/actin as percentage of DMSO control.
As for `CC1=C(CCCCCCN2CCN(S(=O)(=O)c3ccccc3)CC2)C(=O)N(c2ccc(C#N)c(C(F)(F)F)c2)C1=O` [Example 295, 4-[2,5-Dihydro-3-methyl-2,5-dioxo-4-[6-[4-(phenylsulfonyl)piperazin-1-yl]hexyl]-1H-pyrrol-1-yl]-2-(trifluoromethyl)benzonitrite], the “AR Content [%] At 10 μM” value was 48%. On the same count and under the same terms, the figure for `CC1=C(CCCCCCN2CCN(C(=O)Nc3c(Cl)cccc3Cl)CC2)C(=O)N(c2ccc(C#N)c(C(F)(F)F)c2)C1=O` [Example 351] is 61%.

Still in this test, the particulars now being: LNCaP, 48 h, read-out: AR Content [%] At 1 μM.
With `CC1=C(CCCCCCN2CCN(C(=O)Nc3cc(Cl)nc(Cl)c3)CC2)C(=O)N(c2ccc(C#N)c(C(F)(F)F)c2)C1=O` [Example 365, 4-[6-[1-[4-Cyano-3-(trifluoromethyl)phenyl]-2,5-dihydro-4-methyl-2,5-dioxo-1H-pyrrol-3-yl]hexyl]-N-(2,6-dichloropyridin-4-yl)piperazine-1-carboxamide], the remaining activity at 1 µM amounted to 82%.

The test is the same for the next values; noted with them: LNCaP, 48 h, read-out: AR Content [%] At 10 μM.
With `CC1=C(CCCCN2CCN(C(=O)C3CCC3)CC2)C(=O)N(c2ccc(C#N)c(C(F)(F)F)c2)C1=O` [Example 93, 4-[3-[4-[4-(Cyclobutylcarbonyl)piperazin-1-yl]butyl]-2,5-dihydro-4-methyl-2,5-dioxo-1H-pyrrol-1-yl]-2-(trifluoromethyl)benzonitrile], the remaining activity at 10 µM was found to be 53%. Take `CC1=C(CCCCN2CCN(C(=O)c3ccc(N(C)C)cc3)CC2)C(=O)N(c2ccc(C#N)c(C(F)(F)F)c2)C1=O` [Example 96, 4-[3-[4-[4-[4-(Dimethylamino)benzoyl]piperazin-1-yl]butyl]-2,5-dihydro-4-methyl-2,5-dioxo-1H-pyrrol-1-yl]-2-(trifluoromethyl)benzonitrile]: the remaining activity at 10 µM was found to be 50%. The same measure, in the same setting: the result for `CC1=C(CCCCN2CCN(C(=O)c3cccs3)CC2)C(=O)N(c2ccc(C#N)c(C(F)(F)F)c2)C1=O` [Example 99, 4-[2,5-Dihydro-3-methyl-2,5-dioxo-4-[4-[4-[(thien-2-yl)-carbonyl]piperazin-1-yl]butyl]-1H-pyrrol-1-yl]-2-(trifluoromethyl)benzonitrile] reads 66%; that for `CC1=C(CCCCN2CCN(S(=O)(=O)c3ccc(C#N)cc3)CC2)C(=O)N(c2ccc(C#N)c(C(F)(F)F)c2)C1=O` [Example 121, 4-[3-[4-[4-[(4-Cyanophenyl)sulfonyl]piperazin-1-yl]butyl]-2,5-dihydro-4-methyl-2,5-dioxo-1H-pyrrol-1-yl]-2-(trifluoromethyl)benzonitrile], 53%. The same measure, in the same setting: the result for `COc1ccc(C(=O)N2CCN(CCCCCC3=C(C)C(=O)N(c4ccc(C#N)c(C(F)(F)F)c4)C3=O)CC2)cc1OC` [Example 158, 4-[3-[5-[4-(3,4-Dimethoxybenzoyl)piperazin-1-yl]pentyl]-2,5-dihydro-4-methyl-2,5-dioxo-1H-pyrrol-1-yl]-2-(trifluoromethyl)benzonitrile] reads 22%; that for `CC1=C(CCCCCN2CCN(S(=O)(=O)c3cccc4nsnc34)CC2)C(=O)N(c2ccc(C#N)c(C(F)(F)F)c2)C1=O` [Example 207, 4-[3-[5-[4-[(2,1,3-Benzothiadiazol-4-yl)sulfonyl]piperazin-1-yl]pentyl]-2,5-dihydro-4-methyl-2,5-dioxo-1H-pyrrol-1-yl]-2-(trifluoromethyl)benzonitrile], 42%.

With `CC1=C(CCCCCCN2CCN(C(=O)COc3ccc(Cl)cc3)CC2)C(=O)N(c2ccc(C#N)c(C(F)(F)F)c2)C1=O` [Example 264, 4-[3-[6-[4-[(4-Chlorophenoxy)acetyl]piperazin-1-yl]hexyl]-2,5-dihydro-4-methyl-2,5-dioxo-1H-pyrrol-1-yl]-2-(trifluoromethyl)benzonitrile], the remaining activity at 10 µM was 37%.

As for `CC1=C(CCCCCCN2CCN(C(=O)c3ccc(C#N)cc3)CC2)C(=O)N(c2ccc(C#N)c(C(F)(F)F)c2)C1=O` [Example 268, 4-[3-[6-[4-(4-Cyanobenzoyl)piperazin-1-yl]hexyl]-2,5-dihydro-4-methyl-2,5-dioxo-1H-pyrrol-1-yl]-2-(trifluoromethyl)benzonitrile], the remaining activity at 10 µM came out at 73%. Same read-out and setting: the result for `CC1=C(CCCCCCN2CCN(C(=O)CC(C)C)CC2)C(=O)N(c2ccc(C#N)c(C(F)(F)F)c2)C1=O` [Example 270, 4-[2,5-Dihydro-3-methyl-4-[6-[4-(3-methyl-1-oxobutyl)piperazin-1-yl]hexyl]-2,5-dioxo-1H-pyrrol-1-yl]-2-(trifluoromethyl)benzonitrile] reads 65%; that for `CC1=C(CCCCCCN2CCN(S(C)(=O)=O)CC2)C(=O)N(c2ccc(C#N)c(C(F)(F)F)c2)C1=O` [Example 296, 4-[2,5-Dihydro-3-methyl-4-[6-[4-(methylsulfonyl)piperazin-1-yl]hexyl]-2,5-dioxo-1H-pyrrol-1-yl]-2-(trifluoromethyl)benzonitrile], 48%.

Regarding `CC1=C(CCCCCCN2CCN(S(=O)(=O)c3ccc(C)cc3)CC2)C(=O)N(c2ccc(C#N)c(C(F)(F)F)c2)C1=O` [Example 297, 4-[2,5-Dihydro-3-methyl-4-[6-[4-[(4-methylphenyl)sulfonyl]piperazin-1-yl]hexyl]-2,5-dioxo-1H-pyrrol-1-yl]-2-(trifluoromethyl)benzonitrile], the remaining activity at 10 µM was determined as 59%. With `CC1=C(CCCCCCN2CCN(S(=O)(=O)c3ccc(C#N)cc3)CC2)C(=O)N(c2ccc(C#N)c(C(F)(F)F)c2)C1=O` [Example 300, 4-[3-[6-[4-[(4-Cyanophenyl)sulfonyl]piperazin-1-yl]hexyl]-2,5-dihydro-4-methyl-2,5-dioxo-1H-pyrrol-1-yl]-2-(trifluoromethyl)benzonitrile], the remaining activity at 10 µM came to 35%.

Regarding `CC1=C(CCCCCCN2CCN(C(=O)NC(C)C)CC2)C(=O)N(c2ccc(C#N)c(C(F)(F)F)c2)C1=O` [Example 319, 4-[6-[1-[4-Cyano-3-(trifluoromethyl)phenyl]-2,5-dihydro-4-methyl-2,5-dioxo-1H-pyrrol-3-yl]hexyl]-N-(1-methylethyl)-piperazine-1-carboxamide], the remaining activity at 10 µM was 74%. Still for that read-out and setting: the figure for `CC1=C(CCCCCCN2CCN(C(=O)Nc3ccccc3C(F)(F)F)CC2)C(=O)N(c2ccc(C#N)c(C(F)(F)F)c2)C1=O` [Example 324, 4-[6-[1-[4-Cyano-3-(trifluoromethyl)phenyl]-2,5-dihydro-4-methyl-2,5-dioxo-1H-pyrrol-3-yl]hexyl]-N-[2-(trifluoromethyl)phenyl]piperazine-1-carboxamide] is 62%; for `CC1=C(CCCCCCN2CCN(C(=O)Nc3cccc(F)c3)CC2)C(=O)N(c2ccc(C#N)c(C(F)(F)F)c2)C1=O` [Example 326, 4-[6-[1-[4-Cyano-3-(trifluoromethyl)phenyl]-2,5-dihydro-4-methyl-2,5-dioxo-1H-pyrrol-3-yl]hexyl]-N-(3-fluorophenyl)-piperazine-1-carboxamide] it is 45%. Same read-out and setting: the result for `CC1=C(CCCCCCN2CCN(C(=O)Nc3ccc(F)cc3)CC2)C(=O)N(c2ccc(C#N)c(C(F)(F)F)c2)C1=O` [Example 330, 4-[6-[1-[4-Cyano-3-(trifluoromethyl)phenyl]-2,5-dihydro-4-methyl-2,5-dioxo-1H-pyrrol-3-yl]hexyl]-N-(4-fluorophenyl)-piperazine-1-carboxamide] reads 46%. The same measure, in the same setting: the result for `CSc1cccc(NC(=O)N2CCN(CCCCCCC3=C(C)C(=O)N(c4ccc(C#N)c(C(F)(F)F)c4)C3=O)CC2)c1` [Example 340, 4-[6-[1-[4-Cyano-3-(trifluoromethyl)phenyl]-2,5-dihydro-4-methyl-2,5-dioxo-1H-pyrrol-3-yl]hexyl]-N-[3-(methylsulfanyl)phenyl]piperazine-1-carboxamide] reads 41%; that for `CSc1ccc(NC(=O)N2CCN(CCCCCCC3=C(C)C(=O)N(c4ccc(C#N)c(C(F)(F)F)c4)C3=O)CC2)cc1` [Example 342, 4-[6-[1-[4-Cyano-3-(trifluoromethyl)phenyl]-2,5-dihydro-4-methyl-2,5-dioxo-1H-pyrrol-3-yl]hexyl]-N-[4-(methylsulfanyl)phenyl]piperazine-1-carboxamide], 67%; that for `CC1=C(CCCCCCN2CCN(C(=O)Nc3c(F)cccc3F)CC2)C(=O)N(c2ccc(C#N)c(C(F)(F)F)c2)C1=O` [Example 350, 4-[6-[1-[4-Cyano-3-(trifluoromethyl)phenyl]-2,5-dihydro-4-methyl-2,5-dioxo-1H-pyrrol-3-yl]hexyl]-N-(2,6-difluorophenyl)piperazine-1-carboxamide], 61%. Regarding `CC1=C(CCCCCCN2CCN(C(=O)Nc3cc(Cl)nc(Cl)c3)CC2)C(=O)N(c2ccc(C#N)c(C(F)(F)F)c2)C1=O` [Example 365, 4-[6-[1-[4-Cyano-3-(trifluoromethyl)phenyl]-2,5-dihydro-4-methyl-2,5-dioxo-1H-pyrrol-3-yl]hexyl]-N-(2,6-dichloropyridin-4-yl)piperazine-1-carboxamide], the remaining activity at 10 µM came out at 36%.
